How the values were obtained:
[1] = tested on: advanced non-small cell lung cancer (NSCLC) patients; experiment: Cell-free tumor load (cfTL) in plasma cfDNA by TEC-Seq during TKI therapy; format: in vivo, human; settings: single patient CGPLLU2 with metastatic disease; osimertinib 80 mg PO daily
Description: Serial blood was drawn from fifteen advanced non-small cell lung cancer (NSCLC) patients undergoing treatment with targeted tyrosine kinase inhibitors (TKIs), afatinib or osimertinib, to directly detect somatic sequence and structural alterations in cfDNA, to monitor ctDNA dynamics during therapy, to determine cell-free tumor burden, and to predict clinical outcome (FIG. 1). Liquid biopsies were obtained from 11 radiographic responders and four radiographic non-responders immediately prior to treatment (baseline), 6-22 days post treatment, and at serial time points until disease progression. […] Next, changes in cfTL were evaluated within hours to days after treatment compared to baseline and assessed whether cfTL could serve as a marker of patient outcome. […]
For all patients, serial blood draws were collected over the course of treatment with targeted inhibition for isolation of plasma and extraction of cell-free DNA (cfDNA) for genomic analyses. Time points were analyzed immediately prior to treatment for baseline assessment as well as 6-22 days post treatment and at serial time points until disease progression (Table S2).
Sequence and copy number alterations were detected in cfDNA for each patient at each time point analyzed and used a tiered approach to evaluate tumor burden. […]

[2] = tested on: advanced non-small cell lung cancer (NSCLC) patients; experiment: Progression-free survival by RECIST 1.1 CT assessment in NSCLC patients on TKI therapy; format: in vivo, human; settings: single patient CGPLLU2 with metastatic disease; osimertinib 80 mg PO daily; subsequently developed resistance in the primary lung lesion
Description: Serial blood was drawn from fifteen advanced non-small cell lung cancer (NSCLC) patients undergoing treatment with targeted tyrosine kinase inhibitors (TKIs), afatinib or osimertinib, to directly detect somatic sequence and structural alterations in cfDNA, to monitor ctDNA dynamics during therapy, to determine cell-free tumor burden, and to predict clinical outcome (FIG. 1). Liquid biopsies were obtained from 11 radiographic responders and four radiographic non-responders immediately prior to treatment (baseline), 6-22 days post treatment, and at serial time points until disease progression. The ultrasensitive targeted error correction sequencing (TEC-Seq) approach (6) was used as well as whole genome sequencing to identify tumor-derived sequence alterations and chromosomal copy number changes in cell-free DNA (cfDNA). […] Next, changes in cfTL were evaluated within hours to days after treatment compared to baseline and assessed whether cfTL could serve as a marker of patient outcome.
For each patient, ˜5 ml of plasma were collected immediately prior to therapy (baseline), at 6-22 days after therapy initiation (median 16 days), and at additional serial time points until disease progression was confirmed by radiographic assessment (Tables S1 and S2). Target lesions were evaluated before therapy with CT/MRI imaging and approximately every six weeks until disease progression. […]

C=CC(=O)Nc1cc(Nc2nccc(-c3cn(C)c4ccccc34)n2)c(OC)cc1N(C)CCN(C)C [osimertinib]
change of cfTL from baseline to day 10 [1]: rapid decline
progression-free survival [2]: 7.0 months

Reference: patent publication US20210079384A1, “NON-INVASIVE DETECTION OF RESPONSE TO A TARGETED THERAPY” (The Johns Hopkins University, priority 2018, published 2021)
